Results published in patent US20200340984A1, “METHODS OF QUANTIFYING CFTR PROTEIN EXPRESSION” (Proteostasis Therapeutics, Inc., priority 2017, published 2020).

Tested on: F508del CFTR protein
Test: CFTR ELISA, HNE-CF (F508del) cultures
Assay type: cell-based, human
Conditions: HNE-CF (homozygous F508del), 10 μM, 24 hours, vs DMSO
Description: Primary human airway epithelial cells of nasal origin (HNEs) from CF donors homozygous for the F508del mutation (HNE CF) and non-CF donors (HNE WT) were purchased from Epithelix Sàrl (Geneva, Switzerland). The cells were cultured and differentiated as previously described (Pranke et al. (2017) Sci Rep. 7(1):7375). The primary cells were apically mucous washed for 30 minutes prior to treatment with the amplifier PTI-CH (1, 3, or 10 μM) and DMSO for 24 hours.
96-well half area microplates (Greiner Bio-One, Monroe, N.C.) were coated with 3 μg/mL of CFTR antibody UNC596 overnight at 4° C. with gentle shaking. Wells were washed 3 times with TBS-T buffer, blocked with SuperBlock™ T20 Blocking Buffer (Thermo Fisher Scientific) and the washing step was repeated. The CFTR standard used was a fusion peptide (SEQ ID NO:1) that is recognized by UNC450 and UNC596 (GenScript, Piscataway, N.J.).
Serial dilutions of CFTR standard, cell lysates, and nasal brushing samples were prepared in IP lysis buffer. […] The assay was read on the EnVision-Multilabel Reader (Perkin Elmer, Waltham, Mass.).
To further confirm this finding, human nasal epithelial (HNE) cultures obtained from a non-CF (HNE-WT) or CF (HNE-F508del) donor were treated with and amplifier compound. Following 24-hour treatment period, filters were analyzed for either mRNA or protein analyses. […]

O=C(NCCCn1nncc1CO)c1cc(-c2ccccc2)on1 [PTI-CH]
increase in CFTR protein: 1.7 fold
